For three compounds, inhibition results are on record in ChEMBL document CHEMBL5678810.

The target of assay [1] is Wee1-like protein kinase 2 (Homo sapiens) (UniProt P0C1S8). Put plainly: Inhibition of T7 bacteriophage fused human WEE2 at 10 uM by KINOMEscan analysis relative to control.
The target in assay [2] is STE20-like serine/threonine-protein kinase (Homo sapiens) (UniProt Q9H2G2). Put plainly: Inhibition of T7 bacteriophage fused human SLK at 10 uM by KINOMEscan analysis relative to control.
For assay [3], the target named is Dual specificity testis-specific protein kinase 1 (Homo sapiens) (UniProt Q15569). Put plainly: Inhibition of T7 bacteriophage fused human TESK1 at 10 uM by KINOMEscan analysis relative to control.
The target in assay [4] is Serine/threonine-protein kinase 32B (Homo sapiens) (UniProt Q9NY57). Put plainly: Inhibition of T7 bacteriophage fused human YANK2 at 10 uM by KINOMEscan analysis relative to control.
Assay [5] has as its target Serine/threonine-protein kinase 32C (Homo sapiens) (UniProt Q86UX6). The assay can be described thus: Inhibition of T7 bacteriophage fused human YANK3 at 10 uM by KINOMEscan analysis relative to control.
Assay [6] has as its target STE20/SPS1-related proline-alanine-rich protein kinase (Homo sapiens) (UniProt Q9UEW8). Put plainly: Inhibition of T7 bacteriophage fused human STK39 at 10 uM by KINOMEscan analysis relative to control.
Assay [7] concerns the target Ribosomal protein S6 kinase alpha-6 (Homo sapiens) (UniProt Q9UK32). Put plainly: Inhibition of T7 bacteriophage fused human N-terminal RSK4 Kinase domain-1 at 10 uM by KINOMEscan analysis relative to control.
Assay [8] has as its target T1, Serine/threonine-protein kinase TBK1 (Homo sapiens) (UniProt Q9UHD2).
T1 sequence (whole entry): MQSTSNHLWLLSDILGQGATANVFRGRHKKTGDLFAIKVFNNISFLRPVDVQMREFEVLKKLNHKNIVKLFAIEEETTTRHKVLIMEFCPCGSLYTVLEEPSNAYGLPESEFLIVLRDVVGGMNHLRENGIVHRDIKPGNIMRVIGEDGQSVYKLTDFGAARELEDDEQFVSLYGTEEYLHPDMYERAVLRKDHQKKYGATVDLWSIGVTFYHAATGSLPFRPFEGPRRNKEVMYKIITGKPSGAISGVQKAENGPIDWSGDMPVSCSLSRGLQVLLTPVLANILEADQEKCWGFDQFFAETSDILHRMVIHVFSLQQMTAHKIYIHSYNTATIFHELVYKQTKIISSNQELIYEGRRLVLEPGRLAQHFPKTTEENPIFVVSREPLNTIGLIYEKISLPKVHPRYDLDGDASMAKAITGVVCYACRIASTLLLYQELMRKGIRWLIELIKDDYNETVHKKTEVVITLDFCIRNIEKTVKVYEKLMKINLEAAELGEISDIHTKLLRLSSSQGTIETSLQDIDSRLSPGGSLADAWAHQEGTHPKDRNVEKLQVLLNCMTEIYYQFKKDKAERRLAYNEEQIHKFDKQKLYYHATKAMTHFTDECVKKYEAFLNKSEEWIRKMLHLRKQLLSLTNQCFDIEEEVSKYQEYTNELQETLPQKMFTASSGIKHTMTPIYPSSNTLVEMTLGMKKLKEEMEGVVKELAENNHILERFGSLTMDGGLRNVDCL
Put plainly: Inhibition of T7 bacteriophage fused human TBK1 at 10 uM by KINOMEscan analysis relative to control.

Assay [9] has as its target Serine/threonine-protein kinase 35 (Homo sapiens) (UniProt Q8TDR2). Put plainly: Inhibition of T7 bacteriophage fused human STK35 at 10 uM by KINOMEscan analysis relative to control.
Assay [10] concerns the target Vascular endothelial growth factor receptor 2 (Homo sapiens) (UniProt P35968). The assay can be described thus: Inhibition of T7 bacteriophage fused human VEGFR2 at 10 uM by KINOMEscan analysis relative to control.
Assay [11] addresses T2, Serine/threonine-protein kinase TAO1 (Homo sapiens) (UniProt Q7L7X3).
T2 sequence (whole entry): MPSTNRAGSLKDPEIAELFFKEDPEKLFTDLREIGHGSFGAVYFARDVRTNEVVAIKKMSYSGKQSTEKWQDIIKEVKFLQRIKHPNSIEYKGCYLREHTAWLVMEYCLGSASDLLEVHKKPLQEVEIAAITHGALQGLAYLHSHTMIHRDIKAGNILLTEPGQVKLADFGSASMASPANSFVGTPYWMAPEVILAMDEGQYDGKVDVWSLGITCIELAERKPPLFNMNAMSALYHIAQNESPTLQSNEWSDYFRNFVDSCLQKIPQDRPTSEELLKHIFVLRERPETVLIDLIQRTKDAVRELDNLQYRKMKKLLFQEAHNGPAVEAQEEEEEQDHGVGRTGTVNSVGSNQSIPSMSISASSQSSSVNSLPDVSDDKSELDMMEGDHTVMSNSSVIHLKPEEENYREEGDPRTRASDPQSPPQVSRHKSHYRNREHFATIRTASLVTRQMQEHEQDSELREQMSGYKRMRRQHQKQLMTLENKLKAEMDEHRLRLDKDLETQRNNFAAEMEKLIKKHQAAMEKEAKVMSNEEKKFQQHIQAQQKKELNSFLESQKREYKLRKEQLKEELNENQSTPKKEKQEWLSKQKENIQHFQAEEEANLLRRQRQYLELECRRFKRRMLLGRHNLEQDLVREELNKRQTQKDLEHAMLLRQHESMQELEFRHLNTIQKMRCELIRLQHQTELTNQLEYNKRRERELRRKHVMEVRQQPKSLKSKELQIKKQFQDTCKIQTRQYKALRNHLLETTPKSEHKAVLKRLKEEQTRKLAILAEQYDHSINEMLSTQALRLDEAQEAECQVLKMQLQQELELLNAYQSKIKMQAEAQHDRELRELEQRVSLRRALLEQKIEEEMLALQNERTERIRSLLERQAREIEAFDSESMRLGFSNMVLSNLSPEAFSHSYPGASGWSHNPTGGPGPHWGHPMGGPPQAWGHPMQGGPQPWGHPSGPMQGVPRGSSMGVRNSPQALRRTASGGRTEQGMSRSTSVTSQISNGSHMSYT
Put plainly: Inhibition of T7 bacteriophage fused human TAOK1 at 10 uM by KINOMEscan analysis relative to control.

The target of assay [12] is Tyrosine-protein kinase Srms (Homo sapiens) (UniProt Q9H3Y6). The assay can be described thus: Inhibition of T7 bacteriophage fused human SRMS at 10 uM by KINOMEscan analysis relative to control.
The target of assay [13] is Activated CDC42 kinase 1 (Homo sapiens) (UniProt Q07912). Put plainly: Inhibition of T7 bacteriophage fused human TNK2 at 10 uM by KINOMEscan analysis relative to control.
Assay [14] deals with Serine/threonine-protein kinase SIK2 (Homo sapiens) (UniProt Q9H0K1). Put plainly: Inhibition of T7 bacteriophage fused human SIK2 at 10 uM by KINOMEscan analysis relative to control.
The target in assay [15] is SRSF protein kinase 3 (Homo sapiens) (UniProt Q9UPE1). The assay can be described thus: Inhibition of T7 bacteriophage fused human SRPK3 at 10 uM by KINOMEscan analysis relative to control.
Assay [16] addresses Serine/threonine-protein kinase tousled-like 2 (Homo sapiens) (UniProt Q86UE8). The assay can be described thus: Inhibition of T7 bacteriophage fused human TLK2 at 10 uM by KINOMEscan analysis relative to control.

Wee1-like protein kinase 2 (Homo sapiens), sequence (P0C1S8 whole entry, looked up, the tested form may be a part): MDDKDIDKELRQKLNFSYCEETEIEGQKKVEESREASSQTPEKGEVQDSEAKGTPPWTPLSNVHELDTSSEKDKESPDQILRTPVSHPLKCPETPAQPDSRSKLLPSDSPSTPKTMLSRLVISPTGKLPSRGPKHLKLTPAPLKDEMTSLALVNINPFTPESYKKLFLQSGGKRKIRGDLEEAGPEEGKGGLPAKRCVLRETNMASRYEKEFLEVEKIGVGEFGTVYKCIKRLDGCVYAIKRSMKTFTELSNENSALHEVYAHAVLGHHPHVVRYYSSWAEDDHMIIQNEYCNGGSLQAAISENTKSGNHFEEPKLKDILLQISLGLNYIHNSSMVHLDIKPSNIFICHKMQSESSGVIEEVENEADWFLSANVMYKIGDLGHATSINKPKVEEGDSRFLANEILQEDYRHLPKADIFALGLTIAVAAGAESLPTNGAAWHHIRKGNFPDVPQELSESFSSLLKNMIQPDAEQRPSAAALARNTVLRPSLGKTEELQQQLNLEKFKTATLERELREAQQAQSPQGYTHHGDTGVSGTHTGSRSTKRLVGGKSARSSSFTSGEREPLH
Serine/threonine-protein kinase 32C (Homo sapiens), sequence (Q86UX6 whole entry, the tested form may be a part): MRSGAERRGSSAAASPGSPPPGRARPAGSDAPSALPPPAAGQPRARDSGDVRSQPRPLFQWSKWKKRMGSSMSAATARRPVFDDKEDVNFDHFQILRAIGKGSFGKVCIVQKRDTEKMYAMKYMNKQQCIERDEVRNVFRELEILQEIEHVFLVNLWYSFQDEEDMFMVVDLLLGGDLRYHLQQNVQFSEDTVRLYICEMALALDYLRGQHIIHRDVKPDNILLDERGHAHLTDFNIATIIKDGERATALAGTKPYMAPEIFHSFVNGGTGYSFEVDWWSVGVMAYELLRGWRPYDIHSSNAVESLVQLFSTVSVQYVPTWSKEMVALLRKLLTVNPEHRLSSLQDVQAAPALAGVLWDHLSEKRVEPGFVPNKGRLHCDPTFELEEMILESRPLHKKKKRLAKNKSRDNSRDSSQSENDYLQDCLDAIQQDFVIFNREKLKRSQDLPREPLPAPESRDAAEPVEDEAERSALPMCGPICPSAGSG
STE20-like serine/threonine-protein kinase (Homo sapiens), sequence (Q9H2G2 whole entry, looked up, the tested form may be a part): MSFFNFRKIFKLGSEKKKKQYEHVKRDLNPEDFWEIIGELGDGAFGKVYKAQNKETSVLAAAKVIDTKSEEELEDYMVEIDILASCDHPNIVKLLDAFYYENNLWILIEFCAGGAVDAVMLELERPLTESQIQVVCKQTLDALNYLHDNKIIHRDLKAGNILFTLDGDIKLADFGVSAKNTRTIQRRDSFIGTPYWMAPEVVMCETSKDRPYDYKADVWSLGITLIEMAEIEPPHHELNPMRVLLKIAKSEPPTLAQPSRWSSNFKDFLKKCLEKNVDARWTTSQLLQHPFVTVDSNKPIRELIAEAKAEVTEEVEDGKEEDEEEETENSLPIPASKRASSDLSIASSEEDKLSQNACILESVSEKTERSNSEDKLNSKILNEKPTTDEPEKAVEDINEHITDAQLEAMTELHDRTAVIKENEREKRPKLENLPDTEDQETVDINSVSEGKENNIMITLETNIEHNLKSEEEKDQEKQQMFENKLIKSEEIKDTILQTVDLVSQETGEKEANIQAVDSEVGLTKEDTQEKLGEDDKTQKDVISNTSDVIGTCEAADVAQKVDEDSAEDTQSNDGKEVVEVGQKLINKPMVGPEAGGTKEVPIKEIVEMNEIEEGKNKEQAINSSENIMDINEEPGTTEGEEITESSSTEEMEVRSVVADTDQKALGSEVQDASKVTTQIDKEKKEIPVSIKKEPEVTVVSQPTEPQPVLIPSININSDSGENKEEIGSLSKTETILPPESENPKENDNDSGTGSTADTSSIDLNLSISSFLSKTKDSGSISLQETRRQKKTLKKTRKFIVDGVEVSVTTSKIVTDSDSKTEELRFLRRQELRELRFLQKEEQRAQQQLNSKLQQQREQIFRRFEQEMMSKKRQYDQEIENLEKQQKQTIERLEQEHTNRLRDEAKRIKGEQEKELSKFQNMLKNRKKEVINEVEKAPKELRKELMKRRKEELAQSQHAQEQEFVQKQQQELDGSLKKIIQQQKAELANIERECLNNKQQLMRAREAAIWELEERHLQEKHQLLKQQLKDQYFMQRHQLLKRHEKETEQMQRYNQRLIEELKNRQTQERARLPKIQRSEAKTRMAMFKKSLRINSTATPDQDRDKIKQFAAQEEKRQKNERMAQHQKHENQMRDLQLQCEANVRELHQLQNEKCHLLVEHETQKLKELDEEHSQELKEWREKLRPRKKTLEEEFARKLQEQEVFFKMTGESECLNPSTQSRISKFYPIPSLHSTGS
Dual specificity testis-specific protein kinase 1 (Homo sapiens), sequence (Q15569 whole entry, looked up, the tested form may be a part): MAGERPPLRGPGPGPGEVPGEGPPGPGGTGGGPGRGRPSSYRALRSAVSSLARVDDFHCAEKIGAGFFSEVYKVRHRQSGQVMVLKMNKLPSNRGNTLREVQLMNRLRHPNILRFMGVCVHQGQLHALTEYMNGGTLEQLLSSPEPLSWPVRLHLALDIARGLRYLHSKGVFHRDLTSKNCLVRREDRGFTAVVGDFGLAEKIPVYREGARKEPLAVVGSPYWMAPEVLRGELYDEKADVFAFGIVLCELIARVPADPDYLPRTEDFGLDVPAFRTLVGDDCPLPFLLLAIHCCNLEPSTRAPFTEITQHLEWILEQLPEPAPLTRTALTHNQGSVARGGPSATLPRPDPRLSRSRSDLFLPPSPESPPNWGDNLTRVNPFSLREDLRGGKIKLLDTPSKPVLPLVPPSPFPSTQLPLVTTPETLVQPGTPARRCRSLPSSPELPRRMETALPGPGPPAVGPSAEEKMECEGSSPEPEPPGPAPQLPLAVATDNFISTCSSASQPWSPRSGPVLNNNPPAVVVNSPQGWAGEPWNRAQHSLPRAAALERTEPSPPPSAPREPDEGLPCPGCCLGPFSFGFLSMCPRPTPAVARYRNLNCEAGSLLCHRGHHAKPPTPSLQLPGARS
Vascular endothelial growth factor receptor 2 (Homo sapiens), sequence (P35968 whole entry, the tested form may be a part): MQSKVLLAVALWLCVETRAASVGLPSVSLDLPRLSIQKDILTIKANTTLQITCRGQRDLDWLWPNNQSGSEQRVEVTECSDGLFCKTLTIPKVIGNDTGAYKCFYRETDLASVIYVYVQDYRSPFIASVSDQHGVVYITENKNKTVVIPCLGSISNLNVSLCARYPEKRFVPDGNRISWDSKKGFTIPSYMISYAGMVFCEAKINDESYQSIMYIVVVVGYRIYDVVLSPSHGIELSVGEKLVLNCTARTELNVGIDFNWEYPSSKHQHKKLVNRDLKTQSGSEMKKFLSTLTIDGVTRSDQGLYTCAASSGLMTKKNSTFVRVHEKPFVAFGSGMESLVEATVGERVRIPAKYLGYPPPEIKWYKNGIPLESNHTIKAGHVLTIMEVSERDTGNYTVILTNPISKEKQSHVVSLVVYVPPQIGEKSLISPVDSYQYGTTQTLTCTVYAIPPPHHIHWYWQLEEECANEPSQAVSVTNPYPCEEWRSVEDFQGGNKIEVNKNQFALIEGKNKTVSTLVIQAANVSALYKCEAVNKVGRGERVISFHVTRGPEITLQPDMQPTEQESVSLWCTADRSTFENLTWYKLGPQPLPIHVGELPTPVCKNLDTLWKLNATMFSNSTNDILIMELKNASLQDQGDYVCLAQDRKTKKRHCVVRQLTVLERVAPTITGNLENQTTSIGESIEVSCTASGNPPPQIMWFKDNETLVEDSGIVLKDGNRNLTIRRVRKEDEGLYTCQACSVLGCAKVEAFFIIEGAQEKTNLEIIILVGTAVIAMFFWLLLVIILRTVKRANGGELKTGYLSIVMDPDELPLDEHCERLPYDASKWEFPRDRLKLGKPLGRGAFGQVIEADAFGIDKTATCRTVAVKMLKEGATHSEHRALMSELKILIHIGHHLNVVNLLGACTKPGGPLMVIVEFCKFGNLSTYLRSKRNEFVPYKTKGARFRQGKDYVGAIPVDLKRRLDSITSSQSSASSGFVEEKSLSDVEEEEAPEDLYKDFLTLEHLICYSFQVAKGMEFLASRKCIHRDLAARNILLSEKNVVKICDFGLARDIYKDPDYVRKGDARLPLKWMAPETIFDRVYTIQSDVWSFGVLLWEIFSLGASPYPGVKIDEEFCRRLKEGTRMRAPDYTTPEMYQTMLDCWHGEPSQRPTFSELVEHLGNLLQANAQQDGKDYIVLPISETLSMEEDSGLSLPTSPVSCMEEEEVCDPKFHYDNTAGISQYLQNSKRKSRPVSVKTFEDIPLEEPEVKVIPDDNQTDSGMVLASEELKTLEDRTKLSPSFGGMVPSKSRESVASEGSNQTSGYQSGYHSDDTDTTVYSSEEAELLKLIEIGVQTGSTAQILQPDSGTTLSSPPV
Ribosomal protein S6 kinase alpha-6 (Homo sapiens), sequence (Q9UK32 whole entry, the tested form may be a part): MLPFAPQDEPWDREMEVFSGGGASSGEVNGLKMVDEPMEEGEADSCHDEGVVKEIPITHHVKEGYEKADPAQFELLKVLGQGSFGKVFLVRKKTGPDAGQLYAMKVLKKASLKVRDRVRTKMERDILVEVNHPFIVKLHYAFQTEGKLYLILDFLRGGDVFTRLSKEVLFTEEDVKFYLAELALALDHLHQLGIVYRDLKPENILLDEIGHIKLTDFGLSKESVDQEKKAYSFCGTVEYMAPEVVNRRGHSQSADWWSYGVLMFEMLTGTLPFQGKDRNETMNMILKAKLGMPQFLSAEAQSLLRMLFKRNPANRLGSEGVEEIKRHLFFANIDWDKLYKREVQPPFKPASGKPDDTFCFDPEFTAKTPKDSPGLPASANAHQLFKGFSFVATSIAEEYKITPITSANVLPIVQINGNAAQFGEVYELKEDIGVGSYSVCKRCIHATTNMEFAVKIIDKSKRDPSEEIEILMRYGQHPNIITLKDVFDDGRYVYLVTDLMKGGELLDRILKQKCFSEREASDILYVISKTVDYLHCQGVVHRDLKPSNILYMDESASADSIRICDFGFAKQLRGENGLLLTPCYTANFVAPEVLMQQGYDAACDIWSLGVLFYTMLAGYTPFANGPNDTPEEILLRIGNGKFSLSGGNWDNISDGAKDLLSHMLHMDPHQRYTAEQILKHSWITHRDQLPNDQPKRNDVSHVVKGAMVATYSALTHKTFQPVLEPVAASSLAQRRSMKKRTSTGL

For the compound `COc1cc(C(=O)N2CCC(N3CCN(C)CC3)CC2)ccc1Nc1ncc2c(n1)N(C1CCCC1)c1ccccc1C(=O)N2C`, the inhibition in assay [1], in assay [2], in [3], in assay [4], in assay [5] and in assay [6] was 100% throughout. Also, the inhibition in assay [7] was determined as 100%; in assay [8], 100%; in [9], 100%; in assay [10] it was 100%; in [11], 51%; in assay [12], 100%. In addition, the inhibition in assay [13] turned out to be 35%.
`COc1cc(N2CCC(N3CCN(C)CC3)CC2)ccc1Nc1ncc2c(n1)N(C)c1ccccc1C(=O)N2C`: the inhibition was 100% in assay [1]; 100% in assay [2]; 82% in assay [3]; 100% in assay [4]; 100% in [5]; 39% in assay [6]. Further, the inhibition was found to be 92% in assay [7]; 97% in [8]; 100% in assay [9]; 84% in assay [10]; 98% in assay [14]; 72% in [15]. In addition, the inhibition in assay [16] came to 99%; in assay [11] it was 28%; in [12], 77%; in [13], 18%.
`CCOc1cc(C(=O)N2CCC(N3CCN(C)CC3)CC2)ccc1Nc1ncc2c(n1)N(C1CCCC1)c1ccccc1C(=O)N2C`: the inhibition in assay [1], in assay [2], in [3], in assay [4], in assay [5] and in [6] was 100% each time. The inhibition in assay [7], in assay [8], in assay [10], in [14], in [15] and in assay [16] was 100% each time. The inhibition in assay [11] worked out at 79%; in assay [13], 80%.

As usually defined, the inhibition is how much of the control response was suppressed. Read a high inhibition as strong suppression.
